Experimental data: ChEMBL document CHEMBL3603791, “Role of polyol moiety of amphotericin B in ion channel formation and sterol selectivity in bilayer membrane” (Bioorg Med Chem, 2015); call rule not given here
In brackets after ≈: the same amount, converted by molar mass.

Columns and labels:
Candida albicans = assay: Antimicrobial activity against Candida albicans ATCC 36082 incubated for 2 days at 35 degC by CLSI protocol based method; type: functional; details: ATCC 36082, 48 h
[1] = Toxicity in human erythrocytes assessed as induction of hemolysis incubated for 18 hrs; type: cell-based, Erythrocyte
[2] = Toxicity in human erythrocytes assessed as induction of hemolysis at 15 uM incubated for 18 hrs; type: cell-based, Erythrocyte; details: read-out: Activity
[3] = Induction of potassium influx in sterol-free and cholesterol and ergosterol-containing POPC liposomes at 32 uM by BCECF dye based fluorimetric assay; type: physicochemical

| Compound | MIC (Candida albicans) [µM] | HC50 at 18 h [1] [µM] | hemolysis at 18 h, 15 µM [2] [%] | Activity [3] |
| --- | --- | --- | --- | --- |
| C[C@@H]1[C@H](O)[C@@H](C)/C=C/C=C/C=C/C=C/C=C/C=C/C=C/[C@H](O[C@@H]2O[C@H](C)[C@@H](O)[C@H](N)[C@@H]2O)C[C@@H]2O[C@](O)(C[C@@H](O)C[C@@H](O)[C@H](O)C(=O)C[C@@H](O)C[C@@H](O)CC(=O)O[C@H]1C)C[C@H](O)[C@H]2C(=O)O | 2 (≈ 1.88 µg/mL) | > 15 | 10 | Not Active |
| C[C@@H]1[C@H](O)[C@@H](C)/C=C/C=C/C=C/C=C/C=C/C=C/C=C/[C@H](O[C@@H]2O[C@H](C)[C@@H](O)[C@H](N)[C@@H]2O)C[C@@H]2O[C@](O)(C[C@@H](O)C[C@@H](O)[C@H](O)[C@H](O)C[C@@H](O)C[C@@H](O)CC(=O)O[C@H]1C)C[C@H](O)[C@H]2C(=O)O | 4 (≈ 3.76 µg/mL) | 5.4 | – | Not Active |
| C[C@@H]1[C@H](O)[C@@H](C)/C=C/C=C/C=C/C=C/C=C/C=C/C=C/[C@H](O[C@@H]2O[C@H](C)[C@@H](O)[C@H](N)[C@@H]2O)C[C@@H]2O[C@](O)(C[C@@H](O)C[C@@H](O)[C@H](O)[C@@H](O)C[C@@H](O)C[C@@H](O)CC(=O)O[C@H]1C)C[C@H](O)[C@H]2C(=O)O | 1 (≈ 0.94 µg/mL) | 6.9 | – | Not Active |
| C[C@@H]1[C@H](O)[C@@H](C)/C=C/C=C/C=C/C=C/C=C/C=C/C=C/[C@H](O[C@@H]2O[C@H](C)[C@@H](O)[C@H](N)[C@@H]2O)C[C@@H]2O[C@](O)(C[C@@H](O)C[C@@H](O)[C@H](O)CC[C@@H](O)C[C@@H](O)CC(=O)O[C@H]1C)C[C@H](O)[C@H]2C(=O)O [AMPHOTERICIN B] | 0.25 (≈ 0.231 µg/mL) | 3.2 | – | Active |
